Test results from patent US20260083865A1, “PROSTATE SPECIFIC MEMBRANE ANTIGEN (PSMA) LIGANDS AND USE THEREOF” (priority 2022, published 2026).
Read-outs that look alike come from different tables or passages of the source. Each block holds one compound with its values, some of them ahead of it. Numbered stars: 1 amine (or outer) side, 2 acyl side, 3 side chain; on linkers, the order of the positions; unused ones are H or OH. Bridge positions count the residues as written; N and C are the ends. Square brackets hold non-standard residues; d marks the D form. Peptide text beside a SMILES is read from it. * marks the point of attachment. DOTA = O=C(O)CN1CCN(CC(=O)O)CCN(CC(=O)*)CCN(CC(=O)O)CC1; Phe(4-Cl) = N[C@@H](Cc1ccc(Cl)cc1)C(=O)O; tBuAla = CC(C)(C)C[C@H](N)C(=O)O; X1 = O=C(CC1CCN([*:1])CC1)[*:2]; Lys(Me) = CNCCCC[C@H](N)C(=O)O; dTle = CC(C)(C)[C@@H](N)C(=O)O; Suc = O=C(CCC(=O)[*:2])[*:1]; Tle = CC(C)(C)[C@H](N)C(=O)O; Nle = CCCC[C@H](N)C(=O)O; Aib = CC(C)(N)C(=O)O; βAla = NCCC(=O)O

Key:
[1] = target: T1, PSMA-expressing C4-2 cells (Homo sapiens, UniProt Q04609); assay: FACS binding assay (competition with 50 nM PSM-0183); details: read-out: pIC50 [C4-2] CAT (converted)
T1 construct: PSMA-expressing C4-2 cells (ATCC, Cat. No. CRL-3314) were cultured in RPMI-1640; host or cells: C4-2 cells
Method in brief: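 Competition format: fluorescent tracer PSM-0183 (50 nM) displaced from PSMA on C4-2 cells by a test compound titration over 1 h at 4 °C. Bound tracer was quantified as flow-cytometric AF488 median fluorescence after washing. Four-parameter logistic fits of MFI data gave IC50 and pIC50.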

[2] = target: T2, Fc-fusion protein of human PSMA (hPSMA-Fc) (Homo sapiens, UniProt Q04609); assay: Surface plasmon resonance assay (Biacore T200, single cycle kinetic); format: binding; details: read-out: pKD CAT (converted)
T2 construct: purchased Acro Biosystems PSA-H5264
Method in brief: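 KD, expressed as pKD, came from 1:1 Langmuir fits of reference- and buffer-blank-subtracted SPR data. The runs were single-cycle kinetics at 25° C in HBST/0.1% DMSO over human PSMA-Fc, captured to ~1000 RU on a peptide-coated CM5 surface and regenerated with 10 mM glycine pH 1.5.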

[3] = FACS binding, C4-2 cells, category
[4] = FACS binding, PSMA-expressing C4-2 cells, pIC50 category
[5] = PSMA SPR assay, hPSMA-Fc, 25° C., pKD category

T1 sequence (Q04609 whole entry): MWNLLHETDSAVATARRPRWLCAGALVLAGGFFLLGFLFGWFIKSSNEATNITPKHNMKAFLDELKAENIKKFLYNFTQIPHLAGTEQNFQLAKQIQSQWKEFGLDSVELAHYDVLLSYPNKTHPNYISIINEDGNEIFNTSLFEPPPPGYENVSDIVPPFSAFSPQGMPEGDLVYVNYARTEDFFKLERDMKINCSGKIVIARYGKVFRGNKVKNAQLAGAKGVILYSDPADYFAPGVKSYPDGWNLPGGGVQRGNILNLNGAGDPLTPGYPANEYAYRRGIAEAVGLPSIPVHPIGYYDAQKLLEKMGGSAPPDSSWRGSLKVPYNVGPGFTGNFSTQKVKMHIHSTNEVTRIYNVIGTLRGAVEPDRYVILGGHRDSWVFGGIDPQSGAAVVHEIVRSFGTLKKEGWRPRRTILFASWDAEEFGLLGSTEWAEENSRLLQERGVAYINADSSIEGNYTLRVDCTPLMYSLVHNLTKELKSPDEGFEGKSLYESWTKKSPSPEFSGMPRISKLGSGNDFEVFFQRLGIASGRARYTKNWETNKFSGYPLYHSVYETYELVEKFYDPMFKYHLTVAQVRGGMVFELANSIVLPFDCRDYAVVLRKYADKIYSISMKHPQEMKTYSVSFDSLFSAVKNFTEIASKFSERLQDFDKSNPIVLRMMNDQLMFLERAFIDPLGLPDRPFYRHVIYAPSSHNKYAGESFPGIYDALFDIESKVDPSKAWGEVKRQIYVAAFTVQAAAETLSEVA
T2 sequence (Q04609 44-750 limits assumed): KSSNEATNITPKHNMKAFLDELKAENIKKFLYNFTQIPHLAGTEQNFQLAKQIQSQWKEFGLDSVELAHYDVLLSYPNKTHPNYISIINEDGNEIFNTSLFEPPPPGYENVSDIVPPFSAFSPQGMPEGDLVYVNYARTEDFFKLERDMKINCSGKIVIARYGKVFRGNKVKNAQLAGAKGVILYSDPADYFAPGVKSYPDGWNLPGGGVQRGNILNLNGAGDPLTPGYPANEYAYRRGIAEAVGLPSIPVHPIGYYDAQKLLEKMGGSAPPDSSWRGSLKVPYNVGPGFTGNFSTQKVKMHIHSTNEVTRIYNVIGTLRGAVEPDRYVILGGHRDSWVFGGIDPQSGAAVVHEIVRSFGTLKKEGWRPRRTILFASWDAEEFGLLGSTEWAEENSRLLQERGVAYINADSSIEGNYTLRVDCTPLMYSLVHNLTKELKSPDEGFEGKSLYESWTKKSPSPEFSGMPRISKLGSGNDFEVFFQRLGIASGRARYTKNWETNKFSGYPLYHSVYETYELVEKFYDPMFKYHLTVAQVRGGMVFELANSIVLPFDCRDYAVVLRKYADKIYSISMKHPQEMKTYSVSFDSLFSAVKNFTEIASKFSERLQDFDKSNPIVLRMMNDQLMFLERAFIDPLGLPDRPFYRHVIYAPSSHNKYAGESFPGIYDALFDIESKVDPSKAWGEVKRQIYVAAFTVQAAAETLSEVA

SMILES: C[C@@H](O)[C@H](NC(=O)CN1CCN(CC(=O)O)CCN(CC(=O)O)CCN(CC(=O)O)CC1)C(=O)NC(C)(C)C(=O)N[C@@H](Cc1ccccc1)C(=O)N[C@H]1CSSC[C@@H](C(=O)N[C@H](C(=O)NCCC(N)=O)C(C)(C)C)NC(=O)[C@H](CC(N)=O)NC(=O)C(C)(C)NC(=O)[C@H](CCCNC(=N)N)NC(=O)[C@H](CCCCN)NC1=O [PSM-0539, DOTA-Thr-Aib-Phe-[Cys-Lys-Arg-Aib-Asn-Cys]-Tle-Bal-NH2] ({DOTA}-T[Aib]FCKR[Aib]NC[Tle][βAla]-NH2; disulfide 4-9)
IC50 ([1]; pIC50 category of FACS binding, C4-2 cells): < 200 nM
Kd ([2]; pKD category for PSMA SPR activity assay, hPSMA-Fc, 25° C.): 12.6 to 126 nM

SMILES: CC(=O)N[C@H](C(=O)NC(C)(C)C(=O)N[C@@H](Cc1ccccc1)C(=O)N[C@H]1CSSC[C@@H](C(=O)N[C@@H](C(=O)N[C@H](C(N)=O)[C@@H](C)O)C(C)(C)C)NC(=O)[C@H](CC(N)=O)NC(=O)C(C)(C)NC(=O)[C@H](CCCNC(=N)N)NC(=O)[C@H](CCCCN)NC1=O)[C@@H](C)O [PSM-0350, Ac-Thr-Aib-Phe-[Cys-Lys-Arg-Aib-Asn-Cys]-leu-Thr-NH2] (Ac-T[Aib]FCKR[Aib]NC[dTle]T-NH2; disulfide 4-9)
IC50 [1, 4]: 200 to 1260 nM
Kd [2, 5]: 126 to 501 nM

SMILES: CC(=O)NC(C)(C)C(=O)N[C@@H](Cc1ccc(Cl)cc1)C(=O)N[C@H]1CSSC[C@@H](C(=O)N[C@H](C(=O)N[C@H](C(=O)N2CCC(CC(=O)N[C@H](CCCCNC(=O)CN3CCN(CC(=O)O)CCN(CC(=O)O)CCN(CC(=O)O)CC3)C(N)=O)CC2)[C@@H](C)O)C(C)(C)C)NC(=O)[C@H](CC(N)=O)NC(=O)C(C)(C)NC(=O)[C@H](CCCNC(=N)N)NC(=O)[C@H](CCCCN)NC1=O [PSM-0349, Ac-Aib-Pcf-[Cys-Lys-Arg-Aib-Asn-Cys]-Tle-Thr-Cmp-lys(DOTA)-NH2] (Ac-[Aib][Phe(4-Cl)]CKR[Aib]NC[Tle]T[X1][dK](DOTA)-NH2; disulfide 3-8)
IC50 [1, 4]: < 200 nM
Kd [2, 5]: < 12.6 nM

SMILES: CNCCCC[C@@H]1NC(=O)[C@@H](NC(=O)[C@H](Cc2ccc(Cl)cc2)NC(=O)C(C)(C)NC(=O)[C@@H](NC(=O)CC2CCN(C(=O)CN3CCN(CC(=O)O)CCN(CC(=O)O)CCN(CC(=O)O)CC3)CC2)[C@@H](C)O)CSSC[C@@H](C(=O)N[C@H](C(N)=O)C(C)(C)C)NC(=O)[C@H](CC(N)=O)NC(=O)C(C)(C)NC(=O)[C@H](CCCNC(=N)N)NC1=O [PSM-0200, DOTA-Cmp-Thr-Aib-Pcf-[Cys-Lys(Me)-Arg-Aib-Asn-Cys]-Tle-NH2] ({DOTA}-[X1]T[Aib][Phe(4-Cl)]C[Lys(Me)]R[Aib]NC[Tle]-NH2; disulfide 5-10)
IC50 ([1]; FACS binding, C4-2 cells, competition with 50 nM PSM-0183, category): < 200 nM
Kd ([2]; SPR, hPSMA-Fc, single cycle kinetic, 25° C., category): < 12.6 nM

Results, then the compound that gave them:

IC50 [1, 3]: < 200 nM
Kd ([2]; PSMA SPR assay, category): 12.6 to 126 nM
SMILES: C[C@@H](O)[C@H](NC(=O)[C@@H](NC(=O)[C@@H]1CSSC[C@H](NC(=O)[C@H](Cc2ccccc2)NC(=O)C(C)(C)NC(=O)CCC(=O)O)C(=O)N[C@@H](CCCCN)C(=O)N[C@@H](CCCNC(=N)N)C(=O)NC(C)(C)C(=O)N[C@@H](CC(N)=O)C(=O)N1)C(C)(C)C)C(N)=O [PSM-0577, HO-Succinyl-Aib-Phe-[Cys-Lys-Arg-Aib-Asn-Cys]-Tle-Thr-NH2] (Suc-[Aib]FCKR[Aib]NC[Tle]T-NH2; disulfide 3-8)

IC50 [1, 3]: > 3160 nM
Kd ([2]; PSMA SPR assay, category): > 501 nM
SMILES: CCCC[C@H](NC(=O)[C@@H]1CSSC[C@H](NC(=O)[C@H](C)NC(=O)[C@H](C)NC(=O)[C@@H](NC(C)=O)[C@@H](C)O)C(=O)N[C@@H](CCCCN)C(=O)N[C@@H](CCCNC(=N)N)C(=O)N[C@@H](C)C(=O)N[C@@H](CC(N)=O)C(=O)N1)C(=O)N[C@H](C(=O)N[C@@H](CC(=O)O)C(N)=O)[C@@H](C)O [PSM-0586, Ac-Thr-Ala-Ala-[Cys-Lys-Arg-Ala-Asn-Cys]-Nle-Thr-Asp-NH2] (Ac-TAACKRANC[Nle]TD-NH2; disulfide 4-9)

IC50 [1, 3]: < 200 nM
Kd ([2]; PSMA SPR assay, category): 12.6 to 126 nM
SMILES: CC(=O)N[C@H](C(=O)NC(C)(C)C(=O)N[C@@H](Cc1ccccc1)C(=O)N[C@H]1CSSC[C@@H](C(=O)N[C@@H](CC(C)(C)C)C(N)=O)NC(=O)[C@H](CC(N)=O)NC(=O)C(C)(C)NC(=O)[C@H](CCCNC(=N)N)NC(=O)[C@H](CCCCN)NC1=O)[C@@H](C)O [PSM-0560, Ac-Thr-Aib-Phe-[Cys-Lys-Arg-Aib-Asn-Cys]-Npg-NH2] (Ac-T[Aib]FCKR[Aib]NC[tBuAla]-NH2; disulfide 4-9)
